pIC50: −log10 of the molar value. Counter-ions that a name gives are not always drawn. Some results are limits rather than exact numbers.

The subject of one experiment is amyloid β production in transfected H4 (human neuroglioma) cells stably expressing APP constructs. The experiment can be described thus: In vitro cell-based assay of inhibitors of amyloid β production (ELISA). The note with it: Homo sapiens, 16 h, transfected H4 cells expressing APP, approximately 16 hours incubation, amyloid β in medium by ELISA; read-out: ACTIVITY (IC50, inhibition of amyloid β production). The procedure, abridged: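 H4 neuroglioma cells stably expressing APP constructs were dosed in fresh medium, screened initially at 10-100 μM, and incubated ~16 h. Medium Aβ was measured by ELISA with C-terminal-epitope capture and N-terminal detection antibodies, quantified from a standard curve, with dose-response testing of actives.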
In general terms: In an ELISA, binding on a coated surface is turned into a signal by an enzyme label.
On to `COc1cc(CNC(=O)[C@@H](C)N(c2cc(Cl)ccc2F)S(=O)(=O)c2ccc(Cl)cc2)cc(OC)c1OC` [Example 1362], for which the pIC50 was under 6.30.
Consider `C[C@H](COC(=O)NCCCn1cnnn1)N(c1cc(Cl)ccc1F)S(=O)(=O)c1ccc(Cl)cc1` [Example 1294], for which the pIC50 was at least 7.60.
On the same count and under the same terms, to `C[C@H](C(=O)N[C@H](CO)Cc1ccccc1)N(c1cc(Cl)ccc1F)S(=O)(=O)c1ccc(Cl)cc1` [Example 1355] belongs under 6.30.

Still in this experiment, the particulars now being: Homo sapiens, 16 h, transfected H4 cells stably expressing APP constructs; approximately 16 hours incubation; amyloid β in medium by ELISA; read-out: ACTIVITY (IC50, inhibition of amyloid β production).
Consider `C[C@H](CCN1CCSC1C(=O)O)N(c1cc(Cl)ccc1Cl)S(=O)(=O)c1ccc(Cl)cc1` (stereo partly drawn) [Example 1111, 4-chloro-N-(2,5-dichlorophenyl)-N-[3-(2-carboxy-3-thiazolidinyl)-1(R)-methylpropyl]benzenesulfonamide], for which the pIC50 was 7.30 to 7.60.
Same read-out and setting: the value for `CC(CCCN=[N+]=[N-])N(c1cc(Cl)ccc1Cl)S(=O)(=O)c1ccc(Cl)cc1` (centres unmarked) [Example 1138, 4-chloro-N-(2,5-dichlorophenyl)-N-[4-(azido)-1-methylbutyl]benzenesulfonamide] was 6.30 to 7.00.
Still for that read-out and setting: the value for `COC(=O)NCCC[C@@H](C)N(c1cc(Cl)ccc1Cl)S(=O)(=O)c1ccc(Cl)cc1` [Example 1131, 4-chloro-N-(2,5-dichlorophenyl)-N-[4-[[(methoxy)carbonyl]amino]-1-methylbutyl]benzenesulfonamide] was 7.00 to 7.30; that for `O=S(=O)(c1ccc(Cl)cc1)N(Cc1ccccc1OCc1cccnc1)c1ccccc1` [Example 1091, 4-chloro-N-phenyl-N-[2-(3-pyridinylmethoxy)benzyl]benzenesulfonamide hydrochloride] was under 5.00; that for `C[C@H](CCCS(=O)(=O)O)N(c1cc(Cl)ccc1CO)S(=O)(=O)c1ccc(Cl)cc1` [Example 1231, (4R)-4-[N-[5-chloro-2-(hydroxymethyl)phenyl][(4-chlorophenyl)sulfonyl]amino]pentylsulfonic acid] was 6.30 to 7.00.
Same read-out and setting: to `CNS(=O)(=O)CCC[C@@H](C)N(c1cc(F)ccc1F)S(=O)(=O)c1ccc(Cl)cc1` [Example 1207, 4-chloro-N-[2,5-difluorophenyl]-N-[4-[(methylamino)sulfonyl]-1(R)-methylbutyl]benzenesulfonamide] belongs at least 7.60; to `CC([C@@H]1CCCN1C(=O)OC(C)(C)C)N(c1cc(Cl)ccc1Cl)S(=O)(=O)c1ccc(Cl)cc1` (stereo in doubt) [Example 1255, 4-chloro-N-(2,5-dichlorophenyl)-N-[1-(S)-[1-[(1,1-dimethylethoxy)carbonyl]pyrrolidin-2-yl]ethyl]benzenesulfonamide], under 6.30.
For `COC(=O)C1SCCN1CC[C@@H](C)N(c1cc(Cl)ccc1Cl)S(=O)(=O)c1ccc(Cl)cc1` (stereo partly drawn) [Example 1119, 4-chloro-N-(2,5-dichlorophenyl)-N-[3-(2-methoxycarbonyl-3-thiazolidinyl)-1(R)-methylpropyl]benzenesulfonamide], the pIC50 is 7.30 to 7.60.

The experiment is the same for the next values; noted with them: Homo sapiens, 16 h, transfected H4 cells stably expressing APP; approximately 16 hours incubation; amyloid β in medium by ELISA; Table B; read-out: ACTIVITY (IC50, inhibition of amyloid β production).
Consider `C[C@H](c1ccc(F)cc1COCc1ccccn1)N(c1cc(F)ccc1F)S(=O)(=O)c1ccc(Cl)cc1` [Example 400, 4-chloro-N-(2,5-difluorophenyl)-N-((1R)-1-{4-fluoro-2-[(2-pyridinylmethoxy)methyl]phenyl}ethyl)benzenesulfonamide], for which the pIC50 is 7.00 to 7.30.

Staying with this experiment, now noted: Homo sapiens, 16 h, transfected H4 cells stably expressing APP; approximately 16 hours incubation; amyloid β in medium by ELISA; read-out: ACTIVITY (IC50, inhibition of amyloid β production).
As for `COc1ccccc1C(=O)N1CCCCC1CCOc1ccccc1CN(c1cc(F)ccc1F)S(=O)(=O)c1ccc(Cl)cc1` (centres unmarked) [Example 902, 4-chloro-N-(2,5-difluorophenyl)-N-(2-{2-[1-(2-methoxybenzoyl)-2-piperidinyl]ethoxy}benzyl)benzenesulfonamide], the pIC50 was under 6.30.
As to `C[C@H](c1ccc(F)cc1CCCC(=O)NN(C)C)N(c1cc(F)ccc1F)S(=O)(=O)c1ccc(Cl)cc1` [Example 1078, 4-chloro-N-(2,5-difluorophenyl)-N-((1R)-1-{2-[4-(2,2-dimethylhydrazino)-4-oxobutyl]-4-fluorophenyl}ethyl)benzenesulfonamide], the pIC50 was under 6.30.
Same read-out and setting: to `Cc1ccc(OCCCN2CCCCC2)c(CN(c2cc(F)ccc2F)S(=O)(=O)c2ccc(Cl)cc2)c1` [Example 957, 4-chloro-N-(2,5-difluorophenyl)-N-{5-methyl-2-[3-(1-piperidinyl)propoxy]benzyl}benzenesulfonamide hydrochloride] belongs under 6.30; to `C[C@H](c1ccccc1OCCCN(C)C(=O)C(C)(C)C)N(c1cc(F)ccc1F)S(=O)(=O)c1ccc(Cl)cc1` [Example 1059, N-{3-[2-((1R)-1-{[(4-chlorophenyl)sulfonyl]-2,5-difluoroanilino}ethyl)phenoxy]propyl}-N,2,2-trimethylpropanamide], under 6.30.

Still in this experiment, the particulars now being: Table B; transfected H4 cells stably expressing APP; approximately 16 hours incubation; amyloid β in medium by ELISA; read-out: ACTIVITY (inhibitory concentration IC50, inhibition of amyloid β production).
Consider `O=[N+]([O-])c1cc(Cl)ccc1COC1CCCCO1` (centres unmarked) [Example 2, 4-Chloro-2-nitro-1-[[(tetrahydro-2H-pyran-2-yl)oxy]methyl]benzene], for which the pIC50 was at least 7.60.
For `Nc1cc(Cl)ccc1COC1CCCCO1` (centres unmarked) [Example 3, 5-Chloro-2-[[(tetrahydro-2H-pyran-2-yl)oxy]methyl]benzenamine], the pIC50 was at least 7.60.

The experiment is the same for the next values; noted with them: transfected H4 cells stably expressing APP constructs; approximately 16 hours incubation; amyloid β in medium by ELISA; read-out: ACTIVITY (IC50, inhibition of amyloid β production).
Regarding `CCSCCC[C@@H](C)N(c1cc(Cl)ccc1CO)S(=O)(=O)c1ccc(Cl)cc1` [Example 1227, 4-chloro-N-[5-chloro-2-(hydroxymethyl)phenyl]-N-[1(R)-methyl-(4-ethylthio)butyl]benzenesulfonamide], the pIC50 was at least 7.60.
Take `COC(=O)[C@@H](NC(=O)CC[C@@H](C)N(c1cc(Cl)ccc1F)S(=O)(=O)c1ccc(Cl)cc1)C(C)C` [Example 1257, (R)-4-Chloro-N-(5-chloro-2-fluorophenyl)-N-[4-[N-(S)-[1-(methoxycarbonyl)-2-methylpropyl]amino]-1-methyl-4-oxobutyl]benzenesulfonamide]: the pIC50 was 7.00 to 7.30.
The same measure, in the same setting: to `CC[C@H](CSCC(=O)O)N(c1cc(Cl)ccc1Cl)S(=O)(=O)c1ccc(Cl)cc1` [Example 1186, (5R)-5-[(2,5-dichlorophenyl)-[(4-chlorophenyl)sulfonyl]-amino]-3-thioheptanoic acid] belongs 7.30 to 7.60; to `C[C@H](CCN1CCCC(CS(C)(=O)=O)C1)N(c1cc(Cl)ccc1Cl)S(=O)(=O)c1ccc(Cl)cc1` (stereo partly drawn) [Example 1151, 4-chloro-N-(2,5-dichlorophenyl)-N-[3-[(3-(methylsulfonyl)methyl]-1-piperidinyl]-1(R)-methylpropyl)benzenesulfonamide], 6.30 to 7.00.

Staying with this experiment, now noted: transfected H4 cells stably expressing APP; approx. 16 h incubation; amyloid β in medium by ELISA; read-out: ACTIVITY (IC50, inhibition of amyloid β production).
Consider “2-((1R)-1-{[(4-chlorophenyl)sulfonyl]-2,5-difluoroanilino}ethyl)benzyl 2-phenylethylcarbamate [Example 743]”, for which the pIC50 is 6.30 to 7.00.
Same read-out and setting: the value for “N-{2-[2-(1-{[(4-chlorophenyl)sulfonyl]-2,5-difluoroanilino}ethyl)phenoxy]ethyl}-N-methylpentanamide [Example 664]” was 6.30 to 7.00.

Still in this experiment, the particulars now being: transfected H4 cells stably expressing APP; approximately 16 hours incubation; amyloid β in medium by ELISA; Table B; read-out: ACTIVITY (IC50, inhibition of amyloid β production).
With `CCCN(CCC)C(=O)CCCc1cc(F)ccc1[C@@H](C)N(c1cc(F)ccc1F)S(=O)(=O)c1ccc(Cl)cc1` [Example 500, 4-[2-((1R)-1-{[(4-chlorophenyl)sulfonyl]-2,5-difluoroanilino}ethyl)-5-fluorophenyl]-N,N-dipropylbutanamide], the pIC50 was 6.30 to 7.00.
On the same count and under the same terms, to `CN1CCCCC1CCOc1ccccc1CN(c1ccccc1)S(=O)(=O)c1ccc(Cl)cc1` (centres unmarked) [Example 276, 4-Chloro-N-{2-[2-(1-methyl-2-piperidinyl)ethoxy]benzyl}-N-phenylbenzenesulfonamide Hydrochloride] belongs 7.30 to 7.60; to `COC(=O)CCS(=O)(=O)Cc1cc(F)ccc1[C@@H](C)N(c1cc(F)ccc1F)S(=O)(=O)c1ccc(Cl)cc1` [Example 466, Methyl 3-{[2-((1R)-1-{[(4-chlorophenyl)sulfonyl]-2,5-difluoroanilino}ethyl)-5-fluorobenzyl]sulfonyl}propanoate], 7.00 to 7.30.

The experiment is the same for the next values; noted with them: transfected H4 cells stably expressing APP; approximately 16 hours incubation; amyloid β in medium by ELISA; read-out: ACTIVITY (IC50, inhibition of amyloid β production).
Consider “N-{3-[2-(1-{[(4-chlorophenyl)sulfonyl]-2,5-difluoroanilino}ethyl)phenoxy]propyl}-4-methoxybenzamide [Example 819]”, for which the pIC50 was 6.30 to 7.00.
Take `C[C@H](c1ccc(CCCCNS(C)(=O)=O)cc1)N(c1cc(F)ccc1F)S(=O)(=O)c1ccc(Cl)cc1` [Example 1074]: the pIC50 was under 6.30.
Turning to `C[C@H](c1ccc(F)cc1CCCC(=O)O)N(c1cc(F)ccc1F)S(=O)(=O)c1ccc(Cl)cc1` [Example 1080, 4-[2-((1R)-1-{[(4-chlorophenyl)sulfonyl]-2,5-difluoroanilino}ethyl)-5-fluorophenyl]butanoic acid], the pIC50 is under 6.30.
On the same count and under the same terms, the value for `CC(c1ccccc1OCCCN(C)C(=O)Oc1ccccc1)N(c1cc(F)ccc1F)S(=O)(=O)c1ccc(Cl)cc1` (centres unmarked) [Example 826, phenyl 3-[2-(1-{[(4-chlorophenyl)sulfonyl]-2,5-difluoroanilino}ethyl)phenoxy]propyl(methyl)carbamate] was 6.30 to 7.00; that for “N-{4-[2-(1-{[(4-chlorophenyl)sulfonyl]-2,5-difluoroanilino}ethyl)phenoxy]butyl}-N-methylacrylamide [Example 843]” was 6.30 to 7.00.

The values are drawn from US6967196B1, “Sulfonamide compounds and uses thereof” (Bristol-Myers Squibb Company, priority 1999, dated 2005).
